Results from patent publication US10723751B2 (priority 2013, dated 2020).
Read-outs that look alike come from different tables or passages of the source.

Columns and labels:
Pseudomonas Aeruginosa = assay: Aerobic Culture and Mic from ear swab
bacterial pneumonia = assay: Treatment of bacterial pneumonia in a cat; type: in vivo; conditions: before the cyanogenic composition
[1] = known substances; cited from earlier work
respiratory infection = assay: Treatment of therapy resistant respiratory infection in a cat; type: in vivo; conditions: clavamox oral, five days later convenia injections
Experimental: A two year old domestic short hair cat, six pounds, body weight, temp 102° F. emaciated cat came from a cat holding facility and was FIV and FELV negative. Its clinical symptoms: very severe wheezing respiration, very moist cough, frequent sneezing all day beginning 10 days previously. The cat had been treated in another hospital previously with antibiotics: first, clavamox oral/contains amoxicillin and with β-lactamase-inhibiting effect clavulanic acid known as for powerful, broad-spectrum antimicrobial activity. […] CBC chemistry blood work was performed. The only abnormality was a 40% increase in Monocytes above the highest normal, and mild anemia.

herpes simplex labialis = assay: Treatment of herpes simplex labialis; type: in vivo, human
From the text: A volunteer, 54 kg suffered from recurring herpes outbreaks on the lip. The outbreaks happened about every two years and were associated with immune compromised conditions like stress, concurrent upper respiratory infection and menstrual cycles. The outbreaks last approximately 7-9 days and no spontaneous remission of an outbreak had occurred.
The outbreaks always followed a predictable progression and included a tingling sensation, redness and swelling of about 5 mm area on upper right side middle of the lip and 2-4 days after the onset blisters appear that turns into a scab that last about 5 days. The only medicine that could slightly alter this course was Zovirax crema/acyclovir/if the treatment began at the first sign of an outbreak. No other medicine had any effect on alleviating symptoms. With the treatment of Zovirax the blister size smaller (about 4 mm in diameter) and the duration of the outbreak was shorter (to approximately 5 days).
Topical and oral cyanogenic composition medications were applied simultaneously with no other medication.

Candida albicans = assay: Treatment of recurring Candida albicans vaginal yeast infection; type: in vivo, human
From the text: A volunteer 57 kg body weight with frequent recurring vaginal Candida albicans infection was diagnosed and treated by their gynecologist over a period of 15 years. The reccurrence frequency was 2-3 flare ups every year for the past 15 years. […] However, 3-6 months later the infection would again appear. Chlorhexidine wash was also tried to prevent recurrence to no effect.
No flare-up has been detected for at least three years. No other treatment was used since there had been no recurrence.

[2] = test system: Kennel cough, Giardia and Isospora infections; assay: Treatment of Kennel cough, Giardia and Isospora infections in a dog
[3] = Treatment of chronic suppurative prostatitis / prostate abscess in a dog; conditions: in vivo
Experimental: An eight year old Akita dog presented suffering from chronic, recurring prostatitis with typical clinical symptoms associated with the condition. […] This condition had worsened in the previous eight months, causing significant suffering by the pet and frustration to the dog's owner.
In the second week the dose was adjusted to 5 mg/kg inj. twice/day. […] The treatment continued in the 3rd week with 2 mg/bw kg dose twice/day.

Rhodococcus equi = assay: Antibiotic sensitivity testing of the foal's bacterial culture; type: cell-based
[4] = cited from earlier work

Compound: CO[C@@]1(NC(=O)Cc2cccs2)C(=O)N2C(C(=O)O)=C(COC(N)=O)CS[C@@H]21 [cefoxitin]
- MIC (Pseudomonas Aeruginosa; Pseudomonas aeruginosa): ≥ 32 µg/mL
- sensitive / resistant (Pseudomonas Aeruginosa; ear swab isolate): R

Compound: COCC1=C(C(=O)O)N2C(=O)[C@@H](NC(=O)/C(=N\OC)c3csc(N)n3)[C@H]2SC1 [cefpodoxime]
- MIC (Pseudomonas Aeruginosa; Pseudomonas aeruginosa): ≥ 8 µg/mL
- sensitive / resistant (Pseudomonas Aeruginosa; ear swab isolate): R

Compound: CC1(C)S[C@@H]2[C@H](NC(=O)[C@H](N)c3ccc(O)cc3)C(=O)N2[C@H]1C(=O)O [amoxicillin]
- sensitive / resistant (Pseudomonas Aeruginosa; ear swab isolate): R
- outcome of previous treatment (bacterial pneumonia): slight improvement followed by a relapse

Compound: CC1=C(C(=O)O)N2C(=O)[C@@H](NC(=O)[C@H](N)c3ccc(O)cc3)[C@H]2SC1 [cephadroxil]
- sensitive / resistant (Pseudomonas Aeruginosa; ear swab isolate): R

Compound: CC(=O)Oc1ccccc1C(=O)O [aspirin]
- LD50 [1]: 200 to 1200 mg/kg

Compound: CO/N=C(\C(=O)N[C@@H]1C(=O)N2C(C(=O)O)=C(CSC(=O)c3ccco3)CS[C@H]12)c1csc(N)n1 [ceftiofur]
- MIC (Pseudomonas Aeruginosa; Pseudomonas aeruginosa): ≥ 8 µg/mL
- sensitive / resistant (Pseudomonas Aeruginosa; ear swab isolate): R

Compound: CO/N=C(/C(=O)N[C@@H]1C(=O)N2C(C(=O)O)=C([C@@H]3CCCO3)CS[C@H]12)c1csc(N)n1 [cefovecin]
- sensitive / resistant (Pseudomonas Aeruginosa; ear swab isolate): R

Compound: CC1(C)S[C@@H]2[C@H](NC(=O)[C@H](N)c3ccccc3)C(=O)N2[C@H]1C(=O)O [ampicillin]
- sensitive / resistant (Pseudomonas Aeruginosa; ear swab isolate): R

Compound: CC1=C(C(=O)O)N2C(=O)[C@@H](NC(=O)[C@H](N)c3ccccc3)[C@H]2SC1 [cephalexin]
- sensitive / resistant (Pseudomonas Aeruginosa; ear swab isolate): R

Compound: CO/N=C(/C(=O)N[C@@H]1C(=O)N2C(C(=O)[O-])=C([C@@H]3CCCO3)CS[C@H]12)c1csc(N)n1.[Na+] [convenia]
- outcome of previous antibiotic treatment (respiratory infection): the condition continued to worsen

Compound: Nc1nc2c(ncn2COCCO)c(=O)[nH]1 [Zovirax, acyclovir]
- blister size in diameter (herpes simplex labialis; treatment begun at first sign of an outbreak): about 4 mm
- duration of the outbreak (herpes simplex labialis; untreated approximately 7-9 days): about 5 days

Compound: [H]/N=C(\N/C(=N/[H])NCCCCCCNC(=N)NC(=N)Nc1ccc(Cl)cc1)Nc1ccc(Cl)cc1 [Chlorhexidine wash, Chlorhexidine]
- prevention of recurrence (Candida albicans; in vivo): no effect

Compound: CC[C@H]1OC(=O)[C@H](C)[C@@H](O[C@H]2C[C@@](C)(OC)[C@@H](O)[C@H](C)O2)[C@H](C)[C@@H](O[C@@H]2O[C@H](C)C[C@H](N(C)C)[C@H]2O)[C@](C)(O)C[C@@H](C)CN(C)[C@H](C)[C@@H](O)[C@]1(C)O [Azithromycin]
- outcome of previous treatment ([2]; Azithromycin and Clavamox at therapeutic dose, about 2 weeks): the symptoms did not abate

Compound: Cc1nnc(SCC2=C(C(=O)O)N3C(=O)[C@@H](NC(=O)Cn4cnnn4)[C@H]3SC2)s1 [cefazolin]
- sensitive / resistant (Pseudomonas Aeruginosa; ear swab isolate): R

Compound: NCC[C@H](O)C(=O)N[C@@H]1C[C@H](N)[C@@H](O[C@H]2O[C@H](CN)[C@@H](O)[C@H](O)[C@H]2O)[C@H](O)[C@H]1O[C@H]1O[C@H](CO)[C@@H](O)[C@H](N)[C@H]1O [amikacin]
- MIC (Pseudomonas Aeruginosa; Pseudomonas aeruginosa): ≤ 8 µg/mL
- sensitive / resistant (Pseudomonas Aeruginosa; ear swab isolate): S

Compound: [Cl-].[Na+] [Table salt]
- LD50 [1]: 300 mg/kg

Compound: CN1CCN(c2c(F)cc3c(=O)c(C(=O)O)cn4c3c2OCN4C)CC1 [marbofloxacin]
- MIC (Pseudomonas Aeruginosa; Pseudomonas aeruginosa): ≤ 1 µg/mL
- sensitive / resistant (Pseudomonas Aeruginosa; ear swab isolate): S

Compound: CCN1CCN(c2cc3c(cc2F)c(=O)c(C(=O)O)cn3C2CC2)CC1 [enrofloxacin]
- outcome of previous treatment ([2]; switched to Enrofloxacin, Clavomox continued): the symptoms continued to worsen
- MIC (Pseudomonas Aeruginosa; Pseudomonas aeruginosa): ≤ 0.5 µg/mL
- sensitive / resistant (Pseudomonas Aeruginosa; ear swab isolate): S
- outcome of previous antibiotic treatment [3]: only temporary mild improvement, followed by a quick relapse

Compound: gentamicin
- sensitive / resistant (Pseudomonas Aeruginosa; ear swab isolate): S
- MIC (Pseudomonas Aeruginosa; ear swab isolate, heavy growth): <= 2 ug/ml

Compound: CO[C@H]1/C=C/O[C@@]2(C)Oc3c(C)c(O)c4c(O)c(c(/C=N/N5CCN(C)CC5)c(O)c4c3C2=O)NC(=O)/C(C)=C\C=C\[C@H](C)[C@H](O)[C@@H](C)[C@@H](O)[C@@H](C)[C@H](OC(C)=O)[C@@H]1C [rifampin]
- antibiotic sensitivity (Rhodococcus equi): resistance

Compound: CC[C@H]1OC(=O)[C@H](C)[C@@H](O[C@H]2C[C@@](C)(OC)[C@@H](O)[C@H](C)O2)[C@H](C)[C@@H](O[C@@H]2O[C@H](C)C[C@H](N(C)C)[C@H]2O)[C@](C)(O)C[C@@H](C)C(=O)[C@H](C)[C@@H](O)[C@]1(C)O [erythromycin]
- antibiotic sensitivity (Rhodococcus equi): resistance

Compound: Clc1ccccc1C(c1ccccc1)(c1ccccc1)n1ccnc1 [lotrimazole]
- outcome of previous treatment (Candida albicans; oral capsule and cream 5-7 days, infection again after 3-6 months): good symptomatic response

Compound: N#C[C@H](O[C@@H]1O[C@H](CO[C@@H]2O[C@H](CO)[C@@H](O)[C@H](O)[C@H]2O)[C@@H](O)[C@H](O)[C@H]1O)c1ccccc1 [amygdalin]
- LD50 ([4]; literature): about 900 mg/body weight kg
- LD 50 of oral amygdalin ([4]; oral, scientific literature): 400 to 900 mg/kg
